Data published in US20230407243A1, “GENETIC PLATFORM TO INVESTIGATE THE FUNCTIONS OF BACTERIAL DRUG EFFLUX PUMPS” (priority 2022, published 2023).

Legend:
Assay type in all cases: cell-based, Escherichia coli
[1] = test system: EKO-35 araC::acrBD408A; test: MIC susceptibility profiling, efflux platform; settings: for Fold change of MICs: EKO-35 araC::acrBD408A compared to EKO-35; for Minimum Inhibitory Concentration, EKO-35 araC::acrBD408A: Table 13B, non-porinated, technical duplicate
Procedure, shortened: (§1)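 Broth MIC in cation-adjusted Mueller-Hinton (MHB II) following twofold compound titration in duplicate. Bacteria were prepared at OD600 ~1.0 in PBS and diluted 1/2000. Endpoint OD600 after 18 h at 37 °C was corrected using the pre-incubation reading.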

[2] = test system: EKO-35 araC::acrD; test: MIC susceptibility profiling, efflux platform; settings: for Fold change of MICs: EKO-35 araC::acrD compared to EKO-35; for Minimum Inhibitory Concentration, EKO-35 araC::acrD: Table 13A, non-porinated, technical duplicate
Procedure, shortened: as §1

[3] = test system: EKO-35 araC::acrEF; test: MIC susceptibility profiling, efflux platform; settings: for Fold change of MICs: EKO-35 araC::acrEF compared to EKO-35; for Minimum Inhibitory Concentration, EKO-35 araC::acrEF: Table 13A, non-porinated, technical duplicate
Procedure, shortened: as §1

[4] = test system: EKO-35 araC::emrAB; test: MIC susceptibility profiling, efflux platform; settings: for Fold change of MICs: EKO-35 araC::emrAB compared to EKO-35; for Minimum Inhibitory Concentration, EKO-35 araC::emrAB: Table 13B, non-porinated, technical duplicate
Procedure, shortened: as §1

[5] = test system: EKO-35 araC::emrKY; test: MIC susceptibility profiling, efflux platform; settings: for Fold change of MICs: EKO-35 araC::emrKY compared to EKO-35; for Minimum Inhibitory Concentration, EKO-35 araC::emrKY: Table 13B, non-porinated, technical duplicate
Procedure, shortened: as §1

[6] = test system: EKO-35 araC::macAB; test: MIC susceptibility profiling, efflux platform; settings: for Fold change of MICs: EKO-35 araC::macAB compared to EKO-35; for Minimum Inhibitory Concentration, EKO-35 araC::macAB: Table 13B, non-porinated, technical duplicate
Procedure, shortened: as §1

[7] = test system: EKO-35 araC::mdtBC; test: MIC susceptibility profiling, efflux platform; settings: for Fold change of MICs: EKO-35 araC::mdtBC compared to EKO-35; for Minimum Inhibitory Concentration, EKO-35 araC::mdtBC: Table 13B, non-porinated, technical duplicate
Procedure, shortened: as §1

[8] = test system: EKO-35 araC::mexCD (MexCD from P. aeruginosa); test: MIC susceptibility profiling, efflux platform; settings: for Fold change of MICs: EKO-35 araC::mexCD compared to EKO-35; for Minimum Inhibitory Concentration, EKO-35 araC::mexCD: Table 13B, non-porinated, technical duplicate
Procedure, shortened: as §1

[9] = test system: EKO-35 araC::acrB Pore; test: MIC susceptibility profiling, porinated efflux platform; settings: for Fold changes of MICs: EKO-35 araC::acr-B Pore compared to EKO-35-Pore; for Minimum inhibitory concentration, EKO-35 araC::acrB Pore: Table 14A, porinated, technical duplicate
Procedure, shortened: (§2)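 MIC values come from background-corrected OD600 readings (pre-incubation OD subtracted) after 18 h at 37 °C and 900 rpm in MHB II. Compounds were tested in duplicate as 2-fold dilutions. The inoculum came from 18 h LB cultures adjusted to OD600 ~1.0 and diluted 1/2000, and the pore-bearing strains were vancomycin-checked beforehand.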

[10] = test system: EKO-35 araC::acrBD408A Pore; test: as above; settings: for Fold changes of MICs: EKO-35 araC::acrBD408A Pore compared to EKO-35-Pore; for Minimum inhibitory concentration: EKO-35 araC::acrBD408A Pore, technical duplicate
Procedure, shortened: as §2

[11] = test system: EKO-35 araC::acrD Pore; test: as above; settings: for Fold changes of MICs: EKO-35 araC::acrD Pore compared to EKO-35-Pore; for Minimum inhibitory concentration, EKO-35 araC::acrD Pore: Table 14A, porinated, technical duplicate
Procedure, shortened: as §2

[12] = test system: EKO-35 araC::acrEF Pore; test: as above; settings: for Fold changes of MICs: EKO-35 araC::acrEF Pore compared to EKO-35-Pore; for Minimum inhibitory concentration, EKO-35 araC::acrEF Pore: Table 14A, porinated, technical duplicate
Procedure, shortened: as §2

[13] = test system: EKO-35 araC::emrAB Pore; test: as above; settings: for Fold changes of MICs: EKO-35 araC::emrAB Pore compared to EKO-35-Pore; for Minimum inhibitory concentration: EKO-35 araC::emrAB Pore, technical duplicate
Procedure, shortened: as §2

[14] = test system: EKO-35 araC::emrKY Pore; test: as above; settings: for Fold changes of MICs: EKO-35 araC::emrKY Pore compared to EKO-35-Pore; for Minimum inhibitory concentration: EKO-35 araC::emrKY Pore, technical duplicate
Procedure, shortened: as §2

[15] = test system: EKO-35 araC::macAB Pore; test: as above; settings: for Fold changes of MICs: EKO-35 araC::macAB Pore compared to EKO-35-Pore; for Minimum inhibitory concentration: EKO-35 araC::macAB Pore, technical duplicate
Procedure, shortened: as §2

[16] = test system: EKO-35 araC::mdtBC Pore; test: as above; settings: for Fold changes of MICs: EKO-35 araC::mdtBC Pore compared to EKO-35-Pore; for Minimum inhibitory concentration: EKO-35 araC::mdtBC Pore, technical duplicate
Procedure, shortened: as §2

[17] = test system: EKO-35 araC::mdtEF Pore; test: as above; settings: for Fold changes of MICs: EKO-35 araC::mdtEF Pore compared to EKO-35-Pore; for Minimum inhibitory concentration, EKO-35 araC::mdtEF Pore: Table 14A, porinated, technical duplicate
Procedure, shortened: as §2

[18] = test system: EKO-35 araC::mexCD Pore; test: as above; settings: for Fold changes of MICs: EKO-35 araC::mexCD Pore compared to EKO-35-Pore; for Minimum inhibitory concentration: EKO-35 araC::mexCD Pore, technical duplicate
Procedure, shortened: as §2

COC(=O)c1sc(N2CCCC2)c(C#N)c1-c1cccs1 [compound 10]
associated with resistance: efflux pump-mediated resistance vs EKO-35-Pore ([13]; EmrAB, porinated strain)
16 fold: Fold changes of MICs [9] | Fold changes of MICs [11] | Fold changes of MICs [12] | Fold changes of MICs [13] | Fold changes of MICs [17] | Fold changes of MICs [18]
1 fold: Fold change of MICs [1] | Fold change of MICs [2] | Fold change of MICs [3] | Fold change of MICs [4] | Fold change of MICs [5] | Fold change of MICs [6] | Fold change of MICs [7] | Fold change of MICs [8] | Fold changes of MICs [10] | Fold changes of MICs [14] | Fold changes of MICs [15] | Fold changes of MICs [16]
10 µg/mL: Minimum inhibitory concentration [10] | Minimum inhibitory concentration [14] | Minimum inhibitory concentration [15] | Minimum inhibitory concentration [16]
160 µg/mL: Minimum Inhibitory Concentration, EKO-35 araC::acrBD408A [1] | Minimum Inhibitory Concentration, EKO-35 araC::acrD [2] | Minimum Inhibitory Concentration, EKO-35 araC::acrEF [3] | Minimum Inhibitory Concentration, EKO-35 araC::emrAB [4] | Minimum Inhibitory Concentration, EKO-35 araC::emrKY [5] | Minimum Inhibitory Concentration, EKO-35 araC::macAB [6] | Minimum Inhibitory Concentration, EKO-35 araC::mdtBC [7] | Minimum Inhibitory Concentration, EKO-35 araC::mexCD [8] | Minimum inhibitory concentration, EKO-35 araC::acrB Pore [9] | Minimum inhibitory concentration, EKO-35 araC::acrD Pore [11] | Minimum inhibitory concentration, EKO-35 araC::acrEF Pore [12] | Minimum inhibitory concentration [13] | Minimum inhibitory concentration, EKO-35 araC::mdtEF Pore [17] | Minimum inhibitory concentration [18]
increased resistance: efflux pump-mediated resistance vs EKO-35-Pore ([9]; AcrB with the pore) | efflux pump-mediated resistance vs EKO-35-Pore ([12]; AcrEF with the pore) | efflux pump-mediated resistance vs EKO-35-Pore ([17]; MdtEF with the pore) | efflux pump-mediated resistance vs EKO-35-Pore ([18]; MexCD, OM compromised)

N#Cc1ccc(-c2c(NC(=O)C(Cl)Cl)oc(-c3cccs3)c2C#N)cc1 [compound 2]
1 fold: Fold change of MICs [1] | Fold change of MICs [2] | Fold change of MICs [3] | Fold change of MICs [4] | Fold change of MICs [5] | Fold change of MICs [6] | Fold change of MICs [7] | Fold change of MICs [8] | Fold changes of MICs [9] | Fold changes of MICs [10] | Fold changes of MICs [11] | Fold changes of MICs [12] | Fold changes of MICs [13] | Fold changes of MICs [14] | Fold changes of MICs [15] | Fold changes of MICs [16] | Fold changes of MICs [17] | Fold changes of MICs [18]
320 µg/mL: Minimum Inhibitory Concentration, EKO-35 araC::acrBD408A [1] | Minimum Inhibitory Concentration, EKO-35 araC::acrD [2] | Minimum Inhibitory Concentration, EKO-35 araC::acrEF [3] | Minimum Inhibitory Concentration, EKO-35 araC::emrAB [4] | Minimum Inhibitory Concentration, EKO-35 araC::emrKY [5] | Minimum Inhibitory Concentration, EKO-35 araC::macAB [6] | Minimum Inhibitory Concentration, EKO-35 araC::mdtBC [7] | Minimum Inhibitory Concentration, EKO-35 araC::mexCD [8] | Minimum inhibitory concentration, EKO-35 araC::acrB Pore [9] | Minimum inhibitory concentration [10] | Minimum inhibitory concentration, EKO-35 araC::acrD Pore [11] | Minimum inhibitory concentration, EKO-35 araC::acrEF Pore [12] | Minimum inhibitory concentration [13] | Minimum inhibitory concentration [14] | Minimum inhibitory concentration [15] | Minimum inhibitory concentration [16] | Minimum inhibitory concentration, EKO-35 araC::mdtEF Pore [17] | Minimum inhibitory concentration [18]
